# Test results reported in patent US6635429B1, “Heterodimeric nuclear receptors proteins, genes encoding same, and usage thereof” (Institut National de la Sante et de la Recherche Medicale, priority 1992, dated 2003).
# Experiments:
# [1] = tested on: None (vector without insert); experiment: 3ERE-URA3 reporter in yeast strain PL3, vector without insert (control "None"); type: cell-based; conditions: no receptor, yeast PL3, in presence of ligand
# [2] = tested on: RARα and RXRα homodimers or heterodimers
# RXRα-ER(C) = molecular target: T1, RXRα-ER(C) (Mus musculus, UniProt P28700, A202E/D171H/D178A/D181Q/G144N/G162A/I142V/INS139MESAKETRY/INS205MKGGIRKDRRGGRMLKHKRQRDDGEGRGEVGSM/K150Y/K170G/K180N/L172N/L183T/L201Y/M203V/N179T/N190K/Q188R/Q198R/R146Y/R169Q/R177P/R187N/R191S/S147A/T167S/T173D/T175M/V168I/Y155W/Y194A/Y197L); experiment: 3ERE-URA3 reporter transactivation in yeast strain PL3 (OMPdecase activity); type: cell-based
# T1 construct: (a.a. 1 to 467), mouse RXRαdn; expressed in transfected cells; host or cells: Saccharomyces cerevisiae PL3 (multicopy YEp10/YEp90, PGK promoter)
# T1 sequence (P28700 with tags, fused parts or gaps INS139MESAKETRY/I142V/G144N/R146Y/S147A/K150Y/Y155W/G162A/T167S/V168I/R169Q/K170G/D171H/L172N/T173D/T175M/R177P/D178A/N179T/K180N/D181Q/L183T/R187N/Q188R/N190K/R191S/Y194A/Y197L/Q198R/L201Y/A202E/M203V/INS205MKGGIRKDRRGGRMLKHKRQRDDGEGRGEVGSM): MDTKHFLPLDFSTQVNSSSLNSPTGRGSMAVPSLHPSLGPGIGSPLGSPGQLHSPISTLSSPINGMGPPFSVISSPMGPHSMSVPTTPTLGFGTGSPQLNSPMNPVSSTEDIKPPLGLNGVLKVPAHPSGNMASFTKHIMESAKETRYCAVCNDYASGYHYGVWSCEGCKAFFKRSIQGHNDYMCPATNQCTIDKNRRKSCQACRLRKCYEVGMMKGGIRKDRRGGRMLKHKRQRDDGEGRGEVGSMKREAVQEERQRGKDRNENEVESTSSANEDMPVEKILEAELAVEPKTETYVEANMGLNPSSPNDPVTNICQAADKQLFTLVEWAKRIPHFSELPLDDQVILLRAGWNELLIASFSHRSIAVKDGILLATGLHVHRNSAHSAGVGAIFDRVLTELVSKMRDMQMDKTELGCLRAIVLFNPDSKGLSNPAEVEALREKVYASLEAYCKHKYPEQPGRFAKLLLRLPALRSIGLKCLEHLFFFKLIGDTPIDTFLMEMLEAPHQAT
# Method: (§1) Induction of the reporter was determined by measuring the specific activity of the URA3 gene product OMPdecase (see above).
# Vector without insert was used as a control (“None”).
# RARα1-ER.CAS = molecular target: T2, RARα1-ER.CAS (Homo sapiens, UniProt P10276, INS60IETQSSSSEEIVPSPPSPPPLPRIYKPCAVCNDYASGYHYGVWSCEGCKAFFKRSIQGHNDYMCPATNQCTIDKNRRKSCQACRLRKCYEVGMSKES)
# T2 sequence (P10276 with tags, fused parts or gaps isoform P10276-3): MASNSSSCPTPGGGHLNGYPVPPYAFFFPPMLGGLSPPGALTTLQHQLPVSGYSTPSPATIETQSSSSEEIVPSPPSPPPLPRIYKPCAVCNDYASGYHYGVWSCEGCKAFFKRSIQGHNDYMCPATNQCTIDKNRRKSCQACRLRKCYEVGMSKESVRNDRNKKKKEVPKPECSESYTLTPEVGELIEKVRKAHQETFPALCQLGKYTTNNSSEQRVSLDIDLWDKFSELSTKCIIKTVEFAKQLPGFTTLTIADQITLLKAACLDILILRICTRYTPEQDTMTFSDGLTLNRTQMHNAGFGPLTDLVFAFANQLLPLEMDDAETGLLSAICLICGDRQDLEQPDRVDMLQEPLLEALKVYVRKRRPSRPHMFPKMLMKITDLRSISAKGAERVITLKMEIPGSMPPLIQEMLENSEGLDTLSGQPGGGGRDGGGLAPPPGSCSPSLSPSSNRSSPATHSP
# Method: The 5′ prime flank of each construct contains a mammalian Kozak's sequence sandwiched between the EcoR1 and the translation start codon (5′-[…]-3′). […] PCR and site-directed mutagenesis were used to create RARα(DEF)-ER.CAS, RARα1(AB)-ER(C), RXRα(DE)-ER.CAS and RXRα(AB)-ER(C) as shown in FIG. 10a. All sequences generated by PCR or site directed mutagenesis were verified by sequencing. […] For transactivation experiments, transformants were grown exponentially for approximately 5 generations in selective medium […] uracil in the presence or absence of ligand, in conditions of diffuse light.
# as §1
# Vector without insert was used as a control (“None”). Transactivation data are expressed as OMPdecase activities; the mean values shown in the table were determined from duplicate assays with three individual transformants for each clone. The numbers in parentheses indicate the fold induction over the activity observed for each receptor in the absence of ligand.
# hRAR-γ binding to β-RARE = molecular target: T3, hRAR-γ binding to β-RARE (Homo sapiens, UniProt P13631); experiment: Gel retardation assay of RAR binding to β-RARE (RBF complementation); conditions: with HeLa cell NE
# T3 construct: fused to the amino terminal amino acid of full length hRAR-γ; 14 amino acids from the parental vector pEt3a (bacterially expressed preparation only) (N); made in house; host or cells: E. coli BL21 (DE3) plysS; also rVV-infected HeLa cells, rBV-infected Sf9 cells, yeast (ubiquitin fusion) and rabbit reticulocyte lysate
# T3 sequence (P13631 1-454): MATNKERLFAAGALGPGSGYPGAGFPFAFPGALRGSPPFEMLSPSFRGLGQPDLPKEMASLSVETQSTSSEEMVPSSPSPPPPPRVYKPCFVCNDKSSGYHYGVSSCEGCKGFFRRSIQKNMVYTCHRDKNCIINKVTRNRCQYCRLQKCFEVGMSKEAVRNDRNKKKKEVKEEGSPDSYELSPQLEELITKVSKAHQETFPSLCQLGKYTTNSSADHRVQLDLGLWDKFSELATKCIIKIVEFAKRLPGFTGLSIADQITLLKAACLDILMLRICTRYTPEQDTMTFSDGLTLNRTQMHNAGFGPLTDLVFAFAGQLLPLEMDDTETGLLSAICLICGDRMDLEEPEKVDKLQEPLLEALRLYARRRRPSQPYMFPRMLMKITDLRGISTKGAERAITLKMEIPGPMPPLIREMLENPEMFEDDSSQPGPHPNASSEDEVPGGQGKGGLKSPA
# T3 sequence (P28702 1-533 partner): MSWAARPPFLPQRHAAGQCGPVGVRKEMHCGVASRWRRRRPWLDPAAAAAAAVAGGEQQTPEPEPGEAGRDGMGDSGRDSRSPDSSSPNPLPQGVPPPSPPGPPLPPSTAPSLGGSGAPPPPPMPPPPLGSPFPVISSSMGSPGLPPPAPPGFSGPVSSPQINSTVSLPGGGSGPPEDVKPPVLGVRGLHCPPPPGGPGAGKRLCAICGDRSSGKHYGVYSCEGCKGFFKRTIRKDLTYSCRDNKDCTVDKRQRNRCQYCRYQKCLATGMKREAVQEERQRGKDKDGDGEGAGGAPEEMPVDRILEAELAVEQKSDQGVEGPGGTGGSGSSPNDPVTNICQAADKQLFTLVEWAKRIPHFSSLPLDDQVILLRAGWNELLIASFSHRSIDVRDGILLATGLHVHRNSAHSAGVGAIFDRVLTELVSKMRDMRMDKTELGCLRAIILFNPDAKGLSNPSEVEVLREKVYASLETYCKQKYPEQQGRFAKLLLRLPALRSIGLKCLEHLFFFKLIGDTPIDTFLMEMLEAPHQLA
# Method: For gel retardation experiments comparing RAR and RXR subtypes and deletion mutants, all proteins were produced by in vitro translation in the presence of [^35S]methionine.
# Purification of rVV- and rBV-expressed hRAR-γ is being described elsewhere (Chen et al., manuscript in preparation). […] All steps were carried out at 4° C. and RBF activity was monitored through all purification steps by a complementation gel retardation assay using bacterially-expressed hRAR-γ as described above. […] The column was washed with equilibration buffer until the A280 of the eluent returned to baseline. […] The column was washed with equilibration buffer until the A280 of the eluent returned to baseline and then with 4 column volumes of buffer A containing 0.45 M ammonium sulfate and 50 mM KCl. The column was then eluted with an 18 ml linear gradient from 0.45 to 0 M ammonium sulfate in buffer A containing 50 mM KCl.
# RARα = molecular target: T4, RARα (Homo sapiens, UniProt P10276); experiment: URA3 reporter (DR5 etc.) transactivation in yeast strain YPH250 (OMPdecase activity); type: cell-based; conditions: RARα alone, ligand 5×10^−7 M (500 nM)
# T4 construct: The human RARα1 (aa 1-462); expressed in transfected cells; host or cells: Saccharomyces cerevisiae YPH250 (YEp10/YEp90)
# T4 sequence (P10276 1-462): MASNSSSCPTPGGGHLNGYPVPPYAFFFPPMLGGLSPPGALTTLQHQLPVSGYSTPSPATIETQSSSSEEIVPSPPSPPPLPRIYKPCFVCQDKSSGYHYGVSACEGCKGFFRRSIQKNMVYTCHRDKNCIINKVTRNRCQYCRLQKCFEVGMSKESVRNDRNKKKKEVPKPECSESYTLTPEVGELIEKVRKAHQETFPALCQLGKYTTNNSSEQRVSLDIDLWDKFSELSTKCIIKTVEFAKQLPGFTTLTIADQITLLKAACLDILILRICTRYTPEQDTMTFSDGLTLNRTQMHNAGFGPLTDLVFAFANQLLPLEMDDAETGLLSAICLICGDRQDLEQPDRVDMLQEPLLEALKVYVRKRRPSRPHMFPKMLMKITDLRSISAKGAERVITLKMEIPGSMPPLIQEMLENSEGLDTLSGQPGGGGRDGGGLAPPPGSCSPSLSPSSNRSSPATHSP
# [3] = FIG. 10b dose response, FIG. 10c ligand 10^−6 M
compound,measurement,setting,value
"CC1=C(/C=C/C(C)=C\C=C\C(C)=C\C(=O)O)C(C)(C)CCC1 [9C-RA, 9-cis retinoic acid]",OMP decase activity units,[1],0.02 units
same,effect on binding of homodimers or heterodimers to the probes,[2],did not further stimulate
"CC1=C(/C=C/C(C)=C\C=C\C(C)=C\C(=O)O)C(C)(C)CC=C1 [9C-ddRA, 9-cis 3,4-didehydroretinoic acid]",induction of activation by RXRα-ER(C),RXRα-ER(C); [3],induced
"CC1=C(/C=C/C(C)=C/C=C/C(C)=C/C(=O)O)C(C)(C)CCC1 [T-RA, all-trans retinoic acid]",OMP decase activity units,"RARα1-ER.CAS; 3ERE-URA3 reporter, yeast PL3, in presence of ligand",14.70 units
same,stimulation of transactivation by RARα1-ER.CAS,RARα1-ER.CAS; [3],comparably stimulated
same,effect on formation of the hRAR-γ/β-RARE complex,hRAR-γ binding to β-RARE,In no case was the formation of the complex affected
same,OMP decase activity units,[1],0.02 units
same,effect on binding of homodimers or heterodimers to the probes,[2],did not further stimulate
same,"induction of OMPdecase activity, DR5-URA3 reporter",RARα,approx. 5 fold
"CC1=C(/C=C/C(C)=C/C=C/C(C)=C/C(=O)O)C(C)(C)CC=C1 [T-ddRA, all-trans 3,4-didehydroretinoic acid]",conversion to 9-cis stereoisomers in yeast,RXRα-ER(C); inferred from lack of RXRα-ER(C) activation,not significantly converted
